Measured values as given in PubChem BioAssay (NCI).
Converted amounts (≈) assume the structure as drawn.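 Growth conditions: 96-well plates. Treatment: test compound, 48 hours, 5 concentrations. Analysis: linear interpolation between bracketing concentrations; unreached endpoints set to highest concentration. GI50 = concentration required for 50% inhibition of growth. TGI is the concentration that stops growth completely.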 Non-standard residues stand in square brackets, D forms with d. Residues, ends and D or L forms follow the SMILES beside them. *: point of attachment. ONb = O=[N+]([O-])c1ccc(CO*)cc1; AllylGly = C=CC[CH](N)C(=O)O; Boc = CC(C)(C)OC(=O)*

Experiments:
Assay in all cases: DTP human tumour cell line panel, 48 h; in the data active = GI50 below about 0.43 µM; inactive = the rest
SK-MEL-2 melanoma = system: SK-MEL-2 melanoma
OVCAR-3 ovarian = system: OVCAR-3 ovarian
CCRF-CEM leukemia = system: CCRF-CEM leukemia
SK-OV-3 ovarian = system: SK-OV-3 ovarian
CAKI-1 renal = system: CAKI-1 renal
SF-268 CNS = system: SF-268 CNS
ACHN renal = system: ACHN renal
OVCAR-8 ovarian = system: OVCAR-8 ovarian
NCI-H522 lung = system: NCI-H522 lung
OVCAR-4 ovarian = system: OVCAR-4 ovarian
SF-539 CNS = system: SF-539 CNS
MALME-3M melanoma = system: MALME-3M melanoma
IGROV1 ovarian = system: IGROV1 ovarian
OVCAR-5 ovarian = system: OVCAR-5 ovarian
SNB-75 CNS = system: SNB-75 CNS
EKVX NSCLC = system: EKVX NSCLC
SN12C renal = system: SN12C renal
HL-60(TB) leukemia = system: HL-60(TB) leukemia
MDA-MB-231 breast = system: MDA-MB-231 breast
HCC-2998 colon = system: HCC-2998 colon
A549 NSCLC = system: A549 NSCLC
SF-295 CNS = system: SF-295 CNS
786-0 renal = system: 786-0 renal
TK-10 renal = system: TK-10 renal
SW-620 colon = system: SW-620 colon
UO-31 renal = system: UO-31 renal
UACC-62 melanoma = system: UACC-62 melanoma
RPMI-8226 leukemia = system: RPMI-8226 leukemia
NCI-H23 lung = system: NCI-H23 lung
HOP-92 NSCLC = system: HOP-92 NSCLC
COLO 205 colon = system: COLO 205 colon
LOX IMVI melanoma = system: LOX IMVI melanoma
K-562 leukemia = system: K-562 leukemia
A498 renal = system: A498 renal
UACC-257 melanoma = system: UACC-257 melanoma
U251 CNS = system: U251 CNS
SR leukemia = system: SR leukemia
SK-MEL-28 melanoma = system: SK-MEL-28 melanoma
NCI-H460 lung = system: NCI-H460 lung
T-47D breast = system: T-47D breast
M14 melanoma = system: M14 melanoma
HS 578T breast = system: HS 578T breast
HCT-15 colon = system: HCT-15 colon
MDA-MB-435 = system: MDA-MB-435
MCF7 breast = system: MCF7 breast
NCI-H226 lung = system: NCI-H226 lung
HCT-116 colon = system: HCT-116 colon
RXF 393 renal = system: RXF 393 renal
PC-3 prostate = system: PC-3 prostate
MOLT-4 leukemia = system: MOLT-4 leukemia
KM12 colon = system: KM12 colon
BT-549 breast = system: BT-549 breast
SK-MEL-5 melanoma = system: SK-MEL-5 melanoma
HOP-62 NSCLC = system: HOP-62 NSCLC
SNB-19 CNS = system: SNB-19 CNS
NCI/ADR-RES ovarian = system: NCI/ADR-RES ovarian
HT29 colon = system: HT29 colon

C=CCC(NC(=O)OC(C)(C)C)C(=O)NC(CCC(=O)OCc1ccc([N+](=O)[O-])cc1)C(N)=O (stereo not given) (Boc-[AllylGly]-Glu(ONb)-NH2; configuration not given here)
49.8 µg/mL: TGI (NCI-H460 lung)
66.3 µg/mL: TGI (SK-OV-3 ovarian)
51.5 µg/mL: TGI (SNB-75 CNS)
inactive: GI50 (SK-MEL-2 melanoma) 26.5 µg/mL (≈ 55.4 µM) | GI50 (OVCAR-3 ovarian) 26.3 µg/mL (≈ 55.1 µM) | GI50 (CCRF-CEM leukemia) 31.8 µg/mL (≈ 66.5 µM) | GI50 (SK-OV-3 ovarian) 24.6 µg/mL (≈ 51.5 µM) | GI50 (CAKI-1 renal) 19.1 µg/mL (≈ 40 µM) | GI50 (SF-268 CNS) 21.8 µg/mL (≈ 45.5 µM) | GI50 (ACHN renal) 18.1 µg/mL (≈ 37.9 µM) | GI50 (OVCAR-8 ovarian) 35.8 µg/mL (≈ 74.8 µM) | GI50 (NCI-H522 lung) 28.1 µg/mL (≈ 58.8 µM) | GI50 (OVCAR-4 ovarian) 87.2 µg/mL (≈ 182 µM) | GI50 (SF-539 CNS) 20.6 µg/mL (≈ 43 µM) | GI50 (MALME-3M melanoma) 18.4 µg/mL (≈ 38.5 µM) | GI50 (IGROV1 ovarian) 34.1 µg/mL (≈ 71.3 µM) | GI50 (OVCAR-5 ovarian) 64.1 µg/mL (≈ 134 µM) | GI50 (SNB-75 CNS) 21.4 µg/mL (≈ 44.8 µM) | GI50 (EKVX NSCLC) 22.8 µg/mL (≈ 47.6 µM) | GI50 (SN12C renal) 57.5 µg/mL (≈ 120 µM) | GI50 (HL-60(TB) leukemia) 53.1 µg/mL (≈ 111 µM) | GI50 (MDA-MB-231 breast) 93 µg/mL (≈ 194 µM) | GI50 (HCC-2998 colon) 19.2 µg/mL (≈ 40.1 µM) | GI50 (A549 NSCLC) 52.3 µg/mL (≈ 109 µM) | GI50 (SF-295 CNS) 16.9 µg/mL (≈ 35.2 µM) | GI50 (786-0 renal) 21.9 µg/mL (≈ 45.8 µM) | GI50 (TK-10 renal) 34.3 µg/mL (≈ 71.6 µM) | GI50 (SW-620 colon) 95.9 µg/mL (≈ 200 µM) | GI50 (UO-31 renal) 19.7 µg/mL (≈ 41.1 µM) | GI50 (UACC-62 melanoma) 19.5 µg/mL (≈ 40.7 µM) | GI50 (RPMI-8226 leukemia) 26.7 µg/mL (≈ 55.7 µM) | GI50 (NCI-H23 lung) 29.6 µg/mL (≈ 61.9 µM) | GI50 (HOP-92 NSCLC) 13.3 µg/mL (≈ 27.7 µM) | GI50 (COLO 205 colon) 22.9 µg/mL (≈ 47.9 µM) | GI50 (LOX IMVI melanoma) 49 µg/mL (≈ 102 µM) | GI50 (K-562 leukemia) 18.2 µg/mL (≈ 38 µM) | GI50 (A498 renal) 13.4 µg/mL (≈ 28 µM) | GI50 (UACC-257 melanoma) 16.2 µg/mL (≈ 33.8 µM) | GI50 (U251 CNS) 65.2 µg/mL (≈ 136 µM) | GI50 (SR leukemia) 47.8 µg/mL (≈ 99.8 µM) | GI50 (SK-MEL-28 melanoma) 16.3 µg/mL (≈ 34.2 µM) | GI50 (NCI-H460 lung) 24.7 µg/mL (≈ 51.6 µM) | GI50 (T-47D breast) 77 µg/mL (≈ 161 µM) | GI50 (M14 melanoma) 33 µg/mL (≈ 69.1 µM) | GI50 (HS 578T breast) 19.8 µg/mL (≈ 41.3 µM)
53.1 µg/mL: TGI (COLO 205 colon)
37.9 µg/mL: TGI (SF-295 CNS)
90.1 µg/mL: TGI (OVCAR-3 ovarian)
33.3 µg/mL: TGI (ACHN renal)
38.9 µg/mL: TGI (UACC-62 melanoma)
68.8 µg/mL: TGI (SK-MEL-2 melanoma)
52 µg/mL: TGI (786-0 renal)
26.5 µg/mL: TGI (HOP-92 NSCLC)
33.1 µg/mL: TGI (MALME-3M melanoma)
49.7 µg/mL: TGI (SF-268 CNS)
38.5 µg/mL: TGI (UO-31 renal)
30.9 µg/mL: TGI (SK-MEL-28 melanoma)
91.8 µg/mL: TGI (NCI-H23 lung)
31.7 µg/mL: TGI (UACC-257 melanoma)
43.7 µg/mL: TGI (HCC-2998 colon)
45.5 µg/mL: TGI (HS 578T breast)
54.5 µg/mL: TGI (CAKI-1 renal)
77.6 µg/mL: TGI (RPMI-8226 leukemia)
37.6 µg/mL: TGI (SF-539 CNS)
65.5 µg/mL: TGI (K-562 leukemia)
27.9 µg/mL: TGI (A498 renal)
61.7 µg/mL: TGI (EKVX NSCLC)

CC(=O)OC[C@H]1O[C@@H](O[C@H]2[C@H](OC(C)=O)C=CO[C@@H]2COC(C)=O)C(OC(C)=O)[C@H]2OC(C)(C)O[C@H]21 (stereo not given in full)
> 100 µM: TGI (HCT-15 colon) | TGI (OVCAR-3 ovarian) | TGI (MDA-MB-435) | TGI (CCRF-CEM leukemia) | TGI (SK-OV-3 ovarian) | TGI (CAKI-1 renal) | TGI (SF-268 CNS) | TGI (MCF7 breast) | TGI (NCI-H226 lung) | TGI (ACHN renal) | TGI (OVCAR-8 ovarian) | TGI (HCT-116 colon) | TGI (OVCAR-4 ovarian) | TGI (RXF 393 renal) | TGI (SF-539 CNS) | TGI (MALME-3M melanoma) | TGI (PC-3 prostate) | TGI (IGROV1 ovarian) | TGI (MOLT-4 leukemia) | TGI (OVCAR-5 ovarian) | TGI (EKVX NSCLC) | TGI (SN12C renal) | TGI (MDA-MB-231 breast) | TGI (HCC-2998 colon) | TGI (A549 NSCLC) | TGI (SF-295 CNS) | TGI (786-0 renal) | TGI (TK-10 renal) | TGI (SW-620 colon) | TGI (UO-31 renal) | TGI (UACC-62 melanoma) | TGI (KM12 colon) | TGI (BT-549 breast) | TGI (NCI-H23 lung) | TGI (SK-MEL-5 melanoma) | TGI (HOP-92 NSCLC) | TGI (COLO 205 colon) | TGI (LOX IMVI melanoma) | TGI (K-562 leukemia) | TGI (HOP-62 NSCLC) | TGI (SNB-19 CNS) | TGI (UACC-257 melanoma) | TGI (NCI/ADR-RES ovarian) | TGI (U251 CNS) | TGI (SR leukemia) | TGI (SK-MEL-28 melanoma) | TGI (NCI-H460 lung) | TGI (T-47D breast) | TGI (M14 melanoma) | TGI (HS 578T breast) | TGI (HT29 colon)
35.7 µM: TGI (NCI-H522 lung)
87.3 µM: TGI (SNB-75 CNS)
